Source: US11992506B2, “Stem cell derived pancreatic islet differentiation” (Vertex Pharmaceuticals Incorporated, priority 2021, dated 2024)
Where “and” joins values, the source holds several entries; their conditions need not be identical. Equal values may be shown once.

Tests used:
EZH2 = EZH2 (Homo sapiens, UniProt Q15910); conditions: cited from earlier work
[1] = test system: PDX1-positive, NKX-negative cells; assay: Effects of differentiation agents on pancreatic islet cell differentiation (ISL1/NKX6.1 flow cytometry); type: cell-based; conditions: for % of beta cells in S5D6 cell population: agents added to the base protocol on S4D5, S5D1, S5D2, FOXOi 1 μM, XAV 2 μM (present S5D1-4), TPB or PDBU 0.5 μM, XXI 2 μM
Protocol: FoxO1 inhibitor (FoxOi), Wnt inhibitor (XAV), Notch inhibitor (XXI), and/or PKC activator (PDBU or TPB) were tested for their effects on pancreatic islet cell differentiation.
PDX1-positive, NKX-negative cells were administered KGF (50 ng/ml), Sant-1 (250 nM), thiazovivin (2.5 μM), activin A (5 ng/ml), and retinoic acid (100 nM) for a period of six days (S4D1-S4D6) in a media including polyvinyl alcohol-80 (PVA-80) to generate a second population of cells. On day S4D5, the cells may also have been administered an additional reagent or combination of reagents as outlined in Table 5. After the six days, the second population of cells was administered XXI (2 μM), Alk5i (10 μM), GC-1 (1 μM), LDN-193189 (100 nM), thiazovivin (2.5 μM), staurosporine (3 nM), DZNEP (100 nM), Sant-1 (250 nM), retinoic acid (50 nM), and betacellulin (20 ng/ml) for two days (S5D1-S5D2) in a media comprising PVA-89. On days S5D1 and S5D2, the cells may also have been administered an additional reagent or combination of reagents as outlined in Table 5. On days S5D3-S5D6, the cells were administered XXI (2 μM), Alk5i (10 μM), GC-1 (1 μM), LDN-193189 (100 nM), thiazovivin (2.5 μM), staurosporine (3 nM), and DZNEP (100 nM). Cells were collected for analysis on day […].

SC-islet cells = assay: Effect of additional FGF2 in stage 6 of differentiation; type: cell-based, human; conditions: FGF2 100 ng/ml added to stage 6 media (Media A) of Protocol 3
Protocol: SC-islet cells were differentiated using Protocol 1, Protocol 2, Protocol 3, or Protocol 3 with the addition of FGF2 (at 100 ng/ml) in stage 6 media (Media A shown in Table 6). Cells were collected on S6D3, S6D7, and […] for analysis. Cells were also tested for insulin content (FIG. 35A) and glucagon content (FIG. 35B).

EZH2, sequence (Q15910 whole entry, species assumed): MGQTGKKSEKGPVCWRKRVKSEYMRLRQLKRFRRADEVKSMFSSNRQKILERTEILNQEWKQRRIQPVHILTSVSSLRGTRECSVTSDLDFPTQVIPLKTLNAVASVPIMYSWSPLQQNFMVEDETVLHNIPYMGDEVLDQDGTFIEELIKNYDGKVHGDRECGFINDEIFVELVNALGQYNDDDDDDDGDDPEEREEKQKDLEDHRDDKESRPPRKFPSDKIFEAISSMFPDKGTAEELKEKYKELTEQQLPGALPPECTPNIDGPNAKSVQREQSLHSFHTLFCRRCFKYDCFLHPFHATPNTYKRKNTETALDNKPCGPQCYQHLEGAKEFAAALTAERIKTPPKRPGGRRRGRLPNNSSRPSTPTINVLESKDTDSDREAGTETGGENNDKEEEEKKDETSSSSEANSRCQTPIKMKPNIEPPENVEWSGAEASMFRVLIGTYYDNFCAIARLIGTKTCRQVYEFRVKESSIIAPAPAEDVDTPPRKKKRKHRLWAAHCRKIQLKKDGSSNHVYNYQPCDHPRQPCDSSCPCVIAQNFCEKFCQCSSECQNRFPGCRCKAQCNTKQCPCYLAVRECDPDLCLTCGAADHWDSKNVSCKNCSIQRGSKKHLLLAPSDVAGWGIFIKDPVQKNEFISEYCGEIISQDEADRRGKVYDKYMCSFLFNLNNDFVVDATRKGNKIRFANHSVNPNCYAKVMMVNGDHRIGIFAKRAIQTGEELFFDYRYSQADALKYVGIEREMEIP
EZH2, sequence (O75530 whole entry partner, species assumed): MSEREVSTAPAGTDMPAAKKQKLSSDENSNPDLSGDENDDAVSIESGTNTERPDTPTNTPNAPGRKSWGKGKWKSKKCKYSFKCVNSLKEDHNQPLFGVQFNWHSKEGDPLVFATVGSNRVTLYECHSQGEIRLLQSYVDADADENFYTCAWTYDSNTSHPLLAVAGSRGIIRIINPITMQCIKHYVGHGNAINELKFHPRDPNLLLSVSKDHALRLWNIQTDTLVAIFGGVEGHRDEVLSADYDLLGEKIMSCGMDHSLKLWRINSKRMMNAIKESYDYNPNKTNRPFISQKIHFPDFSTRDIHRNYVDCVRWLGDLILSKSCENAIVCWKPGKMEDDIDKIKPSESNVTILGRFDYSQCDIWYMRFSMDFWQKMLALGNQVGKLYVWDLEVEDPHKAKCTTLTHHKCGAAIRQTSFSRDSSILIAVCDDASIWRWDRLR
EZH2, sequence (Q15022 whole entry partner, species assumed): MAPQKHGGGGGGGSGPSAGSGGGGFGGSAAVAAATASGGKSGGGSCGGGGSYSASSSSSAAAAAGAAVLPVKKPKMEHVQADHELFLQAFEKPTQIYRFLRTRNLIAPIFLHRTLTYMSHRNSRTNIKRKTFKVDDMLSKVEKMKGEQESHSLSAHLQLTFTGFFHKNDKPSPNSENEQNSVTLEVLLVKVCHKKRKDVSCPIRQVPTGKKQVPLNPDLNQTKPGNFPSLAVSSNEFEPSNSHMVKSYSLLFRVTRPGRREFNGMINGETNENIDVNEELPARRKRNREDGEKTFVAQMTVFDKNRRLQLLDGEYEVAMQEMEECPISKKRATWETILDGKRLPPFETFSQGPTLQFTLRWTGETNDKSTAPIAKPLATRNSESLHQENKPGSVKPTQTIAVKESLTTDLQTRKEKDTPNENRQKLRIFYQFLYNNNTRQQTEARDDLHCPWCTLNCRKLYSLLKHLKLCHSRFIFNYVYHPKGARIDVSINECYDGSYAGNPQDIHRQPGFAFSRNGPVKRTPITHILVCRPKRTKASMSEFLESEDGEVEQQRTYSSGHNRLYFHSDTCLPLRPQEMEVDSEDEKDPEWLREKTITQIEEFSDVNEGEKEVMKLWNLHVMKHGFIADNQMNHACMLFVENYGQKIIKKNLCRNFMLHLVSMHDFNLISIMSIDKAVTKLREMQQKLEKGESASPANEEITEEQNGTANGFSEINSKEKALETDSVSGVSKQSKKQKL

Compound	% of beta cells in S5D6 cell population [1]	other results
CCCc1cc(C)[nH]c(=O)c1CNC(=O)c1cc(-c2ccc(N3CCN(C(C)C)CC3)nc2)cc2c1cnn2C(C)C [UNC1999]	–	selectivity compared with GSK126 (EZH2; analogue of GSK126): less selective
CCCC(=O)O[C@@H]1[C@@H](C)[C@@]2(O)[C@@H](C=C(CO)C[C@]3(O)C(=O)C(C)=C[C@@H]23)[C@@H]2C(C)(C)[C@]12OC(=O)CCC [PDBU, Phorbol 12,13-dibutyrate]	28%	–
CC(C)[C@H]1C(=O)N[C@H](CO)Cc2cc(NC(=O)/C=C/C=C/c3ccc(C(F)(F)F)cc3)ccc2N1C [TPB, ((2S,5S)-(E,E)-8-(5-(4-(Trifluoromethyl)phenyl)-2,4-pentadienoylamino)benzolactam)]	17%	beta cell production (in words) ([1]; agents added on S4D5 and/or S5, FIGS. 9-15): did not result in more beta cell production
CC[C@H](C)n1cc(C)c2c(C(=O)NCc3c(C)cc(C)[nH]c3=O)cc(-c3ccc(N4CCNCC4)nc3)cc21 [GSK126]	–	selectivity over EZH1 (EZH2; SAM-competitive EZH2 inhibitor): 150 fold
FGF2: growth factor from the FGF family, added at 100 ng/ml in stage 6 media	–	glucagon-expressing cells (SC-alpha cells) (SC-islet cells): increases
CCn1cc(C(=O)O)c(=O)c2c(N)c(F)c(NC3CCCCC3)cc21 [FOXOi]	19% and 13%	–
Oc1nc(-c2ccc(C(F)(F)F)cc2)nc2c1CSCC2 [XAV]	5%	–
